Results from patent US4272541A, “7,8 and 7-8 Substituted 4,5α-epoxymorphinan-6-one compounds, and methods of treating pain and drug dependence with them” (Miles Laboratories, Inc., priority 1979, dated 1981).
Counter-ions that a name gives are not always drawn. Like-named read-outs stand apart in the source and are kept apart here.

Legend:
[1] = tested on: morphine effect; test: Narcotic antagonist activity, modified rat tail flick test; assay type: in vivo, rats (male albino Wistar); conditions: for ED50: Rattus norvegicus, ip, read-out: AD50 (the source's name); for narcotic antagonist activity: in words
Protocol: (B) Narcotic antagonist activity in rats (modified rat tail flick test).
TEST B. EVALUATION OF NARCOTIC ANTAGONIST ACTIVITY
The narcotic antagonist effects of test compounds were determined by a modification of the rat tail flick procedure of Harris and Pierson (J. Pharmacol. Exp. Ther. 143,141 [1964]).
Male albino Wistar rats (100-120 g) were used for this study. A rat's tail is so placed so as to cover a photocell. Heat is applied by a lamp in a reflector with a timer being connected to the lamp and photocell so that the timer goes on when the light is turned on and is turned off when the photocell is uncovered. A rheostat, incorporated into a heating lamp is used to adjust the intensity of the light falling on the tail of the rat such that the rat's control reaction time is from two to four seconds. Animals with a control reaction time outside this range are rejected. The rheostat adjustment is made only if a significant proportion (more than 2 out of every 10 rats) of the reaction times are outside the range of two to four seconds. Groups of five rats were used each time, and two control times were determined at 60 and 30 minutes prior to subcutaneous injection of the drug.
Thirty minutes after the last control run the test drug was given intraperitoneally. This was followed ten minutes later by an ED80 dose of morphine subcutaneously. The animals were retested at 20 minutes after the morphine injection. Control animals were given vehicle and morphine only. The data were calculated as follows: [formula]
The data were plotted on log-probit paper and AD50 values, i.e., the dose required to inhibit the morphine effect by 50% within 95% confidence limits, were determined by the method of Litchfield and Wilcoxon.

[2] = tested on: writhing; test: Acetic acid mouse writhing test (analgesic effects); assay type: in vivo, mice (male CD-1); conditions: for analgesic activity / analgesic/narcotic antagonist profile: in words; for analgesic/narcotic antagonist profile: from writhing ED50 and tail flick AD50 together
Protocol: (A) Analgesic effects upon mice (acetic acid writhing test).
TEST A. ACETIC ACID MOUSE WRITHING TEST
The analgesic effects of test compounds were determined in mice by use of the acetic acid writhing test described by B. J. R. Whittle, Brit. J. Pharmacol., 22:246 (1964). In this test at least three groups of five male CD-1 mice (18-22 g) each were given subcutaneous doses of the test drug dissolved in either distilled water or distilled water acidified with HCl depending on the solubility of the compound. In all cases, 0.4 milliliter of a 0.5% V/V acetic acid in distilled water solution was administered intraperitoneally 15 minutes post drug. The number of writhes in a 20 min. interval beginning 5 minutes after the acetic acid injection were determined and compared with the number of writhes in control groups which had received only acetic acid.
Percent inhibition of writhing was calculated as: [formula]
The ED50 dose, i.e., the dose required to reduce the number of writhes by 50%, was determined graphically from a plot of % inhibition as a probit versus log dose. Confidence limits of 95% were calculated on the basis of those results falling in the range 16-84% inhibition. See Litchfield, J. T. and Wilcoxon, F., J. Pharmacol. Exp. Ther., 96, 99-113, (1949).

[3] = rats, test drug i.p. 10 minutes before ED80 dose of morphine s.c., Table I
[4] = Mus musculus, sc, 0.25 h, mice, subcutaneous, acetic acid i.p. 15 minutes post drug, Table I, read-out: ED50
[5] = mice, subcutaneous, acetic acid i.p. 15 minutes post drug, Table I

Row | SMILES | ED50 [1, 3] | ED50 [2, 4] | analgesic/narcotic antagonist profile [2] | other results
1 | CC[C@@H]1CC(=O)[C@@H]2Oc3c(O)ccc4c3[C@@]23CCN(CC2CC2)[C@H](C4)[C@H]13.Cl [TR-5436, 17-Cyclopropylmethyl-4,5α-epoxy-8α-ethyl-3-hydroxymorphinan-6-one Hydrochloride] | 4.1 mg/kg | 0.36 mg/kg | mixed analgesic/narcotic antagonist | narcotic antagonist activity [1]: also exhibits narcotic antagonist activity; analgesic activity [2]: strong analgesic
2 | CC[C@@H]1CC(=O)[C@@H]2Oc3c(OC)ccc4c3[C@@]23CCN(CC2CC2)[C@H](C4)[C@H]13.O=C(O)C(O)C(O)C(=O)O [TR-5427, 17-Cyclopropylmethyl-4,5α-epoxy-8α-ethyl-3-methoxymorphinan-6-one Tartrate] | > 10 mg/kg | > 10 mg/kg |  | 
3 | CC[C@@H]1CC(=O)[C@@H]2Oc3c(OC)ccc4c3[C@@]23CCN(CC2CCC2)[C@H](C4)[C@H]13.O=C(O)C(O)C(O)C(=O)O [TR-5428, 17-Cyclobutylmethyl-4,5α-epoxy-8α-ethyl-3-methoxymorphinan-6-one Tartrate] |  |  |  | AD50 [1, 3]: IA 10; ED50 [2, 5]: IA 10
4 | CC[C@@H]1CC(=O)[C@@H]2Oc3c(O)ccc4c3[C@@]23CCN(CC2CCC2)[C@H](C4)[C@H]13.Cl [TR-5437, 17-Cyclobutylmethyl-4,5α-epoxy-8α-ethyl-3-hydroxymorphinan-6-one Hydrochloride] | > 10 mg/kg | 0.15 mg/kg | pure analgesic | 
5 | COc1ccc2c3c1O[C@H]1C(=O)[C@@H](C)[C@H](C)[C@H]4[C@@H](C2)N(CC2CCC2)CC[C@@]341 [TR-5429, 17-Cyclobutylmethyl-7α,8β-dimethyl-4,5α-epoxy-3-methoxymorphinan-6-one] | ~10 mg/kg | > 10 mg/kg |  | 
6 | C=CCN1CC[C@]23c4c5ccc(OC)c4O[C@H]2C(=O)C[C@H](CC)[C@H]3[C@H]1C5.Cl [TR-5256, 17-Allyl-4,5α-epoxy-8β-ethyl-3-methoxymorphinan-6-one Hydrochloride] | 5.6 mg/kg |  | some mixed analgesic narcotic antagonist activity but is not particularly potent in either respect | 
7 | COc1ccc2c3c1O[C@H]1C(=O)CC[C@H]4[C@@H](C2)N(CC2CC2)CC[C@]314 [TR-5095, 7,8-dihydro-17-cyclopropylmethylnorcodeinone, reference compound] | 3.4 mg/kg | 17 mg/kg |  | 
8 | Br.COc1ccc2c3c1O[C@H]1C(=O)CC[C@H]4[C@@H](C2)N(CC2CCC2)CC[C@]314 [TR-5108, 17-Cyclobutylmethyl-4,5α-epoxy-3-methoxymorphinan-6-one Hydrobromide, reference compound] |  | 8.8 mg/kg |  | AD50 [1, 3]: IA.3
9 | CC[C@H]1CC(=O)[C@@H]2Oc3c(O)ccc4c3[C@@]23CCN(CC2CCCO2)[C@H](C4)[C@H]13.Cl (stereo partly drawn) [TR-5271, 4,5α-Epoxy-8β-ethyl-3-hydroxy-17-tetrahydrofurfuryl-morphinan-6-one Hydrochloride] | 1.8 mg/kg | 1.06 mg/kg |  | analgesic activity [2]: especially effective analgesics
10 | C[C@@H]1[C@H]2[C@H]3Cc4ccc(O)c5c4[C@@]2(CCN3CC2CC2)[C@@H](O5)C(=O)[C@H]1C.Cl [TR-5416, 17-Cyclopropylmethyl-7α,8β-dimethyl-4,5α-epoxy-3-hydroxymorphinan-6-one Hydrochloride] | 0.57 mg/kg |  | pure narcotic antagonist | ED50 [2, 5]: IA 10
11 | C[C@@H]1[C@H]2[C@H]3Cc4ccc(O)c5c4[C@@]2(CCN3CC2CCC2)[C@@H](O5)C(=O)[C@H]1C [TR-5430, 17-Cyclobutylmethyl-7α,8β-dimethyl-4,5α-epoxy-3-hydroxymorphinan-6-one] | 2.5 mg/kg | 5.8 mg/kg | mixed analgesics/narcotic antagonists | 
12 | COc1ccc2c3c1O[C@H]1C(=O)[C@@H](C)[C@H](C)[C@H]4[C@@H](C2)N(CC2CC2)CC[C@@]341 [TR-5410, 17-Cyclopropylmethyl-7α,8β-dimethyl-4,5-epoxy-3-methoxymorphinan-6-one Hydrochloride] | 0.98 mg/kg | > 10 mg/kg |  | 
13 | CC[C@H]1CC(=O)[C@@H]2Oc3c(O)ccc4c3[C@@]23CCN(CC2CCC2)[C@H](C4)[C@H]13 [TR-5115, 17-Cyclobutylmethyl-4,5α-epoxy-8β-ethyl-3-hydroxymorphinan-6-one] | 0.52 mg/kg | 9.2 mg/kg |  | narcotic antagonist activity [1]: especially effective narcotic antagonists
14 | COc1ccc2c3c1O[C@H]1C(=O)[C@@H](C)C[C@H]4[C@@H](C2)N(CC2CCC2)CC[C@]314.Cl [TR-5403, 17-Cyclobutylmethyl-4,5α-epoxy-3-methoxy-7α-methylmorphinan-6-one Hydrochloride] |  | 9 mg/kg |  | ED50 ([1]; rats, vs morphine, *Estimated): 16.5 mg/kg
15 | C=CCN1CC[C@]23c4c5ccc(O)c4O[C@H]2C(=O)C[C@H](CC)[C@H]3[C@H]1C5.Cl [TR-5266, 17-Allyl-4,5α-epoxy-8β-ethyl-3-hydroxymorphinan-6-one Hydrochloride] | 0.58 mg/kg |  |  | narcotic antagonist activity [1]: especially effective narcotic antagonists; analgesic activity [2]: except for TR-5266 they demonstrate analgesic activity; ED50 [2, 5]: IA 10
16 | C[C@H]1C[C@H]2[C@H]3Cc4ccc(O)c5c4[C@@]2(CCN3CC2CCC2)[C@@H](O5)C1=O [TR-5404, 17-Cyclobutylmethyl-4,5α-epoxy-3-hydroxy-7α-methylmorphinan-6-one Hydrochloride] | 13.2 mg/kg | 0.3 mg/kg |  | 
17 | CC[C@H]1CC(=O)[C@@H]2Oc3c(OC)ccc4c3[C@@]23CCN(CC2CC2)[C@H](C4)[C@H]13.Cl [TR-5109, 17-Cyclopropylmethyl-4,5α-epoxy-8β-ethyl-3-methoxymorphinan-6-one Hydrochloride] | 0.78 mg/kg | 2.1 mg/kg |  | narcotic antagonist activity [1]: especially effective narcotic antagonists; analgesic activity [2]: especially effective analgesics
18 | COc1ccc2c3c1O[C@H]1C(=O)[C@@H](C)C[C@H]4[C@@H](C2)N(CC2CC2)CC[C@]314 [TR-5394, Hydrochloride] | 1.6 mg/kg |  |  | ED50 [2, 5]: IA 10
19 | C[C@H]1C[C@H]2[C@H]3Cc4ccc(O)c5c4[C@@]2(CCN3CC2CC2)[C@@H](O5)C1=O [TR-5402, 17-Cyclopropylmethyl-4,5α-epoxy-3-hydroxy-7α-methylmorphinan-6-one] |  | 0.42 mg/kg | mixed analgesics/narcotic antagonists | ED50 ([1]; agonist-antagonist potency, unit inferred): 1.63 mg/kg; ED50 ([2]; Mus musculus, sc, agonist-antagonist potency, unit inferred, read-out: ED50): 0.42 mg/kg
20 | CC[C@H]1CC(=O)[C@@H]2Oc3c(O)ccc4c3[C@@]23CCN(CC2CC2)[C@H](C4)[C@H]13 [TR-5126, 17-Cyclopropylmethyl-4,5α-epoxy-8β-ethyl-3-hydroxymorphinan-6-one] | 0.25 mg/kg | 7.8 mg/kg |  | narcotic antagonist activity [1]: especially effective narcotic antagonists
